According to patent EP0641569A1, “ANTIPRURITIC” (ONO PHARMACEUTICAL CO., LTD., priority 1992, dated 1993):

Assays:
Acute toxicity in rats = conditions: Jcl-SD, rat, in vivo, read-out: LD₅₀
Description: (§1) Compound A was orally or subcutaneously administered to each ten male and female 6-weeks aged Jcl-ICR mice and Jcl-SD rats, respectively per group. Two groups of Compound A (1000 and 2000 mg/kg) were used by suspending into 0.5% carboxymethyl cellulose (CMC) aqueous solution at the concentration of 100 mg/ml.

Acute toxicity in mice = conditions: Jcl-ICR, mouse, in vivo, read-out: LD₅₀
Description: as §1

patients in hemodialysis = experiment: Treatment for pruritus cutanea in hemodialysis (improvement score of itching and rash); format: in vivo, human; conditions: for improvement in itching: four patients in hemodialysis with severe itching, no effect with other agents, hydrate
Description: 8-[p-(4-phenylbutoxy)benzoyl]amino-2-(tetrazol-5-yl)-4-oxo-4H-1-benzopyran·1/2 hydrate (abbreviated as "Compound A" hereafter) were administered at the dose of 225 mg or 450 mg per day to four patients in hemodialysis (dialyzed for 3 to 11 years) who have severe itching and show no effect with other agents [no effect even with antihistamine, azerastin (anti-allergy agent already on the market) and steroid ointment]. The evaluation was carried out by improvement score of subjective symptom according to "The Standard of degree of Itching" and of rash (judged by slide).

[1] = 225 mg or 450 mg per day, four patients in hemodialysis

Row | SMILES | LD50 (Acute toxicity in rats; po, orally, female) [mg/kg] | LD50 (Acute toxicity in rats; po, orally, male) [mg/kg] | LD50 (Acute toxicity in rats; sc, subcutaneously, female) [mg/kg] | LD50 (Acute toxicity in rats; sc, subcutaneously, male) [mg/kg] | LD50 (Acute toxicity in mice; po, orally, female) [mg/kg] | LD50 (Acute toxicity in mice; po, orally, male) [mg/kg] | LD50 (Acute toxicity in mice; sc, subcutaneously, female) [mg/kg] | LD50 (Acute toxicity in mice; sc, subcutaneously, male) [mg/kg] | side effect (patients in hemodialysis; [1]) | subjective symptom and objective symptom (rash), daytime and nighttime (patients in hemodialysis; [1]) | improvement in itching (patients in hemodialysis; 225 mg or 450 mg per day) | improvement in itching (patients in hemodialysis; 225 mg or 450 mg per day, listed as 8-[p-(4-phenylbutoxy)benzoyl]amino-2-(tetrazol-5-yl)-4-oxo-4H-1-benzopyran semih) | effect on itching (patients in hemodialysis; earlier treatment of the same four patients with other agents)
1 | O=C(Nc1cccc2c(=O)cc(-c3nnn[nH]3)oc12)c1ccc(OCCCCc2ccccc2)cc1 [Compound A, 8-[p-(4-phenylbutoxy)benzoyl]amino-2-(tetrazol-5-yl)-4-oxo-4H-1-benzopyran·1/2 hydrate] | > 2000 | > 2000 | > 2000 | > 2000 | > 2000 | > 2000 | > 2000 | > 2000 | no side effect | Improvement was shown | became better | Remarkable improvement | 
2 | CN1CCCC(n2nc(Cc3ccc(Cl)cc3)c3ccccc3c2=O)CC1 (stereo not shown) [azerastin, reference compound] |  |  |  |  |  |  |  |  |  |  |  |  | no effect
